The record followed here is article PMC7504387, “Antimicrobial and Amyloidogenic Activity of Peptides Synthesized on the Basis of the Ribosomal S1 Protein from Thermus Thermophilus” (International Journal of Molecular Sciences, 2020).

Values after ≈ are worked out from the molar mass of the structure shown. “Also recorded” adds a separate entry of the source. Where a SMILES comes first, the peptide text is derived from it. Where no end group is shown, it is not given here. [ ]: non-standard residue; d: D form. Sar = CNCC(=O)O

The test system of series [1] is ribosomal S1 protein from T. thermophilus. Nature of the series: Thioflavine T fluorescence, coaggregation of peptide with S1 protein. Conditions: S1:peptide ratios 1:1 and/or 1:5. On the procedure: (§1) Fibrils growth was monitored by thioflavine T (ThT) (Sigma-Aldrich, St. Louis, MO, USA) fluorescence. The kinetics of aggregation of peptides was studied using the method of fluorescence spectroscopy. Each kinetics graph was plotted based on the average of several results measured at different time intervals. To facilitate dissolution, all the samples of peptides were pre-dissolved in 100% DMSO, then buffers 50 mM Tris-HCl, pH 7.5, 150 mM NaCl or 20% acetic acid pH 2.0, 150 mM NaCl were added (1% final concentration DMSO) and filtered through […] membranes to remove small aggregates. ThT is the most commonly used fluorescent dye for the following amyloid formation semi-quantitatively in vitro. Free ThT has excitation and emission maxima at ∼350 and ∼450 nm, respectively (after binding to fibrils, the excitation and emission λmax change to ∼450 and ∼482–485 nm, respectively). A stock solution of ThT was prepared at a concentration of 20 mM in 50 mM Tris-HCl, pH 7.5, 150 mM NaCl or 20% acetic acid pH 2.0, 150 mM NaCl, respectively and stored at 4 °C protected from light. The final concentration of ThT was 0.2 mM, and each peptide was 0.2 mM. ThT was present in the sample during the fibril formation reaction. Measurements of ThT fluorescence were performed on a Cary Eclipse fluorescence spectrophotometer (Varian, Mulgrave, Australia) in quartz cells 3 × 3 mm at 37 °C.

The nature of series [2]: Thioflavine T fluorescence assay of peptide aggregation. Format: physicochemical. The conditions noted are these: ThT 0.2 mM, 37 °C; for ThT fluorescence intensity, final: peptide alone 0.2 mM, 1% DMSO, end of kinetics (time axis to 80 min); for amyloids in peptide preparation according to ThT fluorescence: peptide alone. On the procedure: as §1
Series [3] deals with ribosomal S1 protein from T. thermophilus. Description: Electron microscopy, coaggregation of peptide with S1 protein. On the procedure: (§2) The presence of amyloid fibrils in the test samples was monitored by transmission electron microscopy (TEM). End-point solutions of peptides were collected and the samples were dissolved in the same solution to 0.2 mg/mL before studying with electron microscopy. A formvar-coated copper grid 400 mesh (Electron Microscopy Sciences, Hatfield, PA, USA) was placed on a 10 μL sample. After 5 min absorption, the grids with the preparation were negatively stained for 1.5–2.0 min with 1% (weight/volume) aqueous solution of uranyl acetate. The excess of the staining agent was removed with filter paper. The preparations were analyzed using a JEM-100C (Jeol, Tokyo, Japan) transmission electron microscope at the accelerating voltage of 80 kV. Images were recorded on the Kodak electron image film (SO-163) at nominal magnification of 40,000–60,000.

A short description of series [4]: Transmission electron microscopy of peptide preparations. Format: physicochemical. Conditions: peptide alone. The procedure:
as §2

For series [5], the system named is T. thermophilus cell culture. Format: cell-based. The conditions noted are these: for minimal inhibitory concentration (MIC): optical absorption at 600 nm after 24 h incubation, 5 repeats for R23I, 2 for R23T and V10I. On the procedure: UV-Vis spectra were recorded using a spectrophotometr SF-102 (Akvilon, Moscow, Russia). At the end of the incubation, the density of the medium was estimated by spectrophotometry in a cuvette 10 mm with a total volume of 100 μL. The cuvettes were filled with the peptide water solutions and spectra were collected, using a wavelength from 600 nm. Biological activity of peptides was evaluated by their minimum concentration, which that may inhibit the growth of T. thermophilus bacteria culture. Biological activity of peptides was counted by using the following equation: (1) E=1−A (sample with peptide)/A (sample without peptide), where E is a biological activity of peptides, A is an optical absorption after 24 h incubation with and without peptide.
To construct a dose-effect curve and estimate the quantitative parameters of the curves, the statistical environment R and the drc package were used. The choice of model for describing the functional dependence was determined by several parameters: the logarithm of the maximum value of the likelihood function (logLik), the Akaike information criterion (IC), and the residual variance (Res var).
The algorithm for evaluating antimicrobial activity includes the study of this process and the dose–response relationship. The reaction of a biological object determines a quantitative assessment of the antimicrobial effect, depending not only on the concentration of the peptide, but also on the time of its action. Almost any impact begins with a certain threshold. An important final result of the experiment is the assessment of this threshold—the minimum inhibitory concentration (MIC) at which peptide influence is observed.

The test system of the next series is T. thermophilus cells. Description: Electron microscopy of intact and peptide-treated T. thermophilus cells. The format is cell-based. The procedure: Along with the spectrophotometric method for determining the antimicrobial activity of peptides, the viability of cells was evaluated using electron microscopy. […] At the given peptide concentration, cells with a typical morphology and flagella were often found. Many protein aggregates were also observed. The absence of an antimicrobial effect with an increase in the concentration of the peptide to 1000 μg/mL, consistent with the spectrophotometry data of the antimicrobial activity of peptides (Figure 3).
as §2

[6] abbreviates: peptide:S1 protein ratio 5:1 (S1:peptide = 1:5).

As to “GlyGlySarGlyVVEGTVVEVT (GG[Sar]GVVEGTVVEVT) [G14T, elongated peptide GlyGlySarGly…]”, the “amyloids on joint incubation with S1 protein according to ThT fluorescence” value in series [1] is on record as “presence of amyloids, which tend to disaggregate”. In series [2], the “ThT fluorescence intensity, final” value came out at 4 a.u and the “amyloids in peptide preparation according to ThT fluorescence” value is “presence of amyloids”. Further, the “morphology of peptide/S1 protein mixture by electron microscopy” value (“morphology of peptide/S1 protein mixture” below) in series [3] (peptide:S1 protein ratio 1:1) was “fibrils are not formed”. In addition, the “aggregate/fibril morphology according to electron microscopy” value in series [4] (negative staining, TEM) is listed as “short dense fibrils”.
Take “GlyGlySarGlyVTDFGVFVEI [G14I, elongated peptide GlyGlySarGly[…]]”: in series [2], the “ThT fluorescence intensity, final” value is listed as 80 a.u and the “amyloids in peptide preparation according to ThT fluorescence” value is recorded as “presence of amyloids”.
As for VTDFGVFVEI [V10I], the “minimal inhibitory concentration (MIC)” value in series [5] (T. thermophilus culture) came out at 1000 µg/mL.
As for “VVEGTVVEVT [V10T, unmodified amyloidogenic peptide … based on the ribosomal S1 protein from T. thermophilus]”, the “cell morphology by electron microscopy” value in the series with T. thermophilus cells (peptide 100 μg/mL) is on record as “had no toxic effect”. Further, the “amyloids on joint incubation with S1 protein according to ThT fluorescence” value in series [1] was “presence of amyloids, which tend to disaggregate”. For the same compound, the “morphology of peptide/S1 protein mixture” value was “only aggregates are present” in series [3] (peptide:S1 protein ratio 1:1); “both aggregates and fibrils are present; also recorded: led to the formation of fibrils” in series [3] (setting [6]).
In the case of “DFGVFVNLG [D9G, amyloidogenic peptide … based on the ribosomal S1 protein from T. thermophilus]”, in series [5] (T. thermophilus culture, OD 600 nm, 24 h, single repeat), the “biological activity (growth inhibition) in the range of studied concentrations” value is on record as “did not show biological activity”.
For the compound `CC(C)[C@H](NC(=O)CNC(=O)CN(C)C(=O)CNC(=O)CNC(=O)[C@H](CCCNC(=N)N)NC(=O)[C@H](CCCNC(=N)N)NC(=O)[C@H](CCCNC(=N)N)NC(=O)[C@H](CCC(N)=O)NC(=O)[C@H](CCCNC(=N)N)NC(=O)[C@H](CCCNC(=N)N)NC(=O)[C@H](CCCCN)NC(=O)[C@H](CCCCN)NC(=O)[C@@H](N)CCCNC(=N)N)C(=O)N[C@H](C(=O)N[C@@H](CCC(=O)O)C(=O)NCC(=O)N[C@H](C(=O)N[C@H](C(=O)N[C@H](C(=O)N[C@@H](CCC(=O)O)C(=O)N[C@H](C(=O)N[C@H](C(=O)O)[C@@H](C)O)C(C)C)C(C)C)C(C)C)[C@@H](C)O)C(C)C` [R23T] (HELM PEPTIDE1{R.K.K.R.R.Q.R.R.R.G.G.[Sar].G.V.V.E.G.T.V.V.E.V.T}$$$$V2.0; N-terminus and C-terminus assumed), the “cell morphology by electron microscopy” value with T. thermophilus cells (peptide 100 μg/mL) is listed as “did not differ from the control”; in the series with T. thermophilus cells (peptide 500 μg/mL), “cells were often damaged”. Besides, the “minimal inhibitory concentration (MIC)” value in series [5] (T. thermophilus culture) was 500 µg/mL (≈ 193 µM). The “amyloids in peptide preparation according to ThT fluorescence” value in series [2] is “absence of R23T amyloids”. Moreover, the “morphology of peptide/S1 protein mixture” value in series [3] (peptide:S1 protein ratio 1:1) is “aggregates are observed; also recorded: aggregates of different sizes”; in series [3] (setting [6]), “aggregates of different morphology (type 1 and type 2), fibrils and thin films are formed; also recorded: both the fibrils and films were formed”. Further, the “fibril/aggregate formation by electron microscopy” value in series [4] (5 h incubation at 37 °C, 50 mM TrisHCl pH 7.5, 150 mM NaCl) is given as “did not form fibrils, but the aggregates were observed”.
In the case of `NC[C@H]1O[C@H](O[C@H]2[C@H](O)[C@@H](O[C@H]3O[C@H](CO)[C@@H](O)[C@H](N)[C@H]3O)[C@H](N)C[C@@H]2N)[C@H](O)[C@@H](O)[C@@H]1O` [kanamycin, reference compound], the “change of optical density of T. thermophilus culture over time” value in series [5] (50 μg/mL in medium, OD 600 nm versus sampling time, DMSO control reached 0.8) is “no increase in the optical density”. For the same compound, the “effectiveness E = 1 − A(sample with peptide)/A(sample without peptide)” value in series [5] (T. thermophilus culture, OD 600 nm, 24 h, maximum observed, probably a limitation of the method) is recorded as at most 0.8. In addition, the “concentration close to 50% of the inhibition of cell culture growth” value in series [5] (T. thermophilus culture, dose-response curve, log-logistic model) was about 10 µg/mL.
